Assay results taken from patent US5563130A, “Methods for inhibiting angiogenesis, proliferation of endothelial or tumor cells and tumor growth” (American Cyanamid Company, priority 1994, dated 1996).
Structures can show the parent of a compound that is named as a salt.

Columns and labels:
Format in all cases: cell-based
A2780S = experiment: Antiproliferative activity in human ovarian tumor cell line A2780S; conditions: PROTOCOL 1 and PROTOCOL 2
Method: (§1) PROTOCOL 1, 2, and 3 are described in greater detail hereinbelow. In general, according to PROTOCOLS 1 and 2, the target ABAE and/or Human Tumor cells are exposed to the compound of Formula I for 48 hours. PROTOCOL 3 exposes ABAE cell to the compound for 4 days. A detailed description of the protocol is as follows:
(§2) Antiproliferative Activity in Human Tumor and Adult Bovine Aortic Endothelial (ABAE) Cell Lines
(§3) The antiproliferative activity of the compounds of Formula I of the present invention is evaluated in a panel comprised of human tumor cell lines and an adult bovine aortic endothelial cell line (ABAE). The human tumor cell lines are from:
(§4) All cell lines are maintained in log phase in RPMI 1640 media, supplemented with 5% fetal calf serum, penicillin/streptomycin and 2 mM L-glutamine. Cultures are renewed after 20 passages with cells from a fresh stock of batch-frozen early passage cells. Cell lines are routinely checked for mycoplasma contamination (Genprobe). In a laminar flow hood, cells (1-5×10^4) are plated into 96-well microtiter plates in a volume of 0.1 ml/well with a bulk microtiter dispenser (Denley). […] At this concentration, dimethylsulfoxide has no effect on cell growth. Compounds are added using a Tomtec dispenser which simultaneously dispenses from one 96-well plate, containing the drug dilutions, to the plates containing the cells. After two days of continuous drug exposure, 50% cold trichloroacetic acid (TCA) is added to 10% final concentration to fix the cells, and after 60 minutes at 4° C., the TCA is aspirated and the plates are washed 5 times with deionized water using a microtiter plate washer. The number of cells on the plate are quantitated using a protein dye-binding assay (Monks et al., 1991). A 0.4% solution of the dye, sulforhodamine B, in glacial acetic acid is added to the plates, and the plates are washed 5 times with 1% glacial acetic acid using the automatic plate washed. The bound stain is solubilized with 0.1 ml of 10 mM Tris base. The optical densities are read from an automatic spectrophotometric plate reader (Dynatech) directly to a main frame computer (VAX 8600).
(§5) Positive controls, that include standard chemotherapeutic drugs (i.e., adriamycin, cisplatin, etc.), are included in every experiment.
(§6) Background optical density measurements (complete media-cells, and complete media+drug-cells) are automatically subtracted from the appropriate control and test wells. Mean values and standard errors are determined from duplicate wells. A measure is also made of the optical density at time when the drugs are added. The number of cells after treatment (P), as % of control, is calculated for every concentration of drug, as follows: [formula] wherein: T is optical density measurement for treated cells after 48 hours;
(§7) C is optical density measurement for untreated cells after 48 hours;
(§8) Co is optical density measurement for cells at the time of drug addition.
(§9) IC50 of growth inhibition is calculated from the sets of P values using the RS-1 data package (BBN Software).
(§10) The antiproliferative activity of the compounds of Formula I is evaluated in a panel comprised of human tumor cell lines and an adult bovine aortic endothelial cell line (ABAE) as listed in PROTOCOL 1. This assay is a modification of PROTOCOL 1. The modifications include:
(§11) 1) each concentration for each compound is tested in a single well;
(§12) 2) compounds are tested at 20, 4, 0.8, 0.16 microgram/ml and additionally in some experiments at 100 and 0.32 microgram/ml;
(§13) 3) samples are pipetted into a 96-well plate for each of the cell lines by a Beckman Biomek 1000 SL robot;
(§14) 4) after fixing with TCA each well is washed with 0.35 ml distilled water twice, not five times;
(§15) 5) after staining with sulforhodamine B each well is washed 3 times, not five times; […]

A2780/DDP = experiment: Antiproliferative activity in human ovarian tumor cell line A2780/DDP; conditions: PROTOCOL 1 and PROTOCOL 2
Method: as §1, §2, §3, §4, §5, §6, §7, §8, §9, §10, §11, §12, §13, §14, §15

MIP = experiment: Antiproliferative activity in human colon tumor cell line MIP; conditions: PROTOCOL 1 and PROTOCOL 2
Method: as §1, §2, §3
(§16) 2) Colon tumors: MIP, CaCo2, and SW620.
as §4, §5, §6, §7, §8, §9, §10, §11, §12, §13, §14, §15

HTB 16 = experiment: Antiproliferative activity in human tumor cell line HTB 16; conditions: ovarian tumor line; PROTOCOL 1 and PROTOCOL 2
Method: as §1, §2, §3, §4, §5, §6, §7, §8, §9, §10, §11, §12, §13, §14, §15

SW620 = experiment: Antiproliferative activity in human colon tumor cell line SW620; conditions: PROTOCOL 1 and PROTOCOL 2
Method: as §1, §2, §3, §16, §4, §5, §6, §7, §8, §9, §10, §11, §12, §13, §14, §15

Human Tumor Cell lines = experiment: Antiproliferative activity in panel of human tumor cell lines; conditions: average over the tested human tumor cell lines
Method: as §1, §2, §3, §16, §4, §5, §6, §7, §8, §9, §10, §11, §12, §13, §14, §15

[1] = tested on: Adult Bovine Aortic Endothelial (ABAE) cell line; experiment: Antiproliferative activity in ABAE cells, PROTOCOL 1 (48 h, SRB)
Method: PROTOCOL 1, 2, and 3 are described in greater detail hereinbelow. In general, according to PROTOCOLS 1 and 2, the target ABAE and/or Human Tumor cells are exposed to the compound of Formula I for 48 hours. PROTOCOL 3 exposes ABAE cell to the compound for 4 days. A detailed description of the protocol is as follows: Antiproliferative Activity in Human Tumor and Adult Bovine Aortic Endothelial (ABAE) Cell Lines The antiproliferative activity of the compounds of Formula I of the present invention is evaluated in a panel comprised of human tumor cell lines and an adult bovine aortic endothelial cell line (ABAE). […] The number of cells on the plate are quantitated using a protein dye-binding assay (Monks et al., 1991). […] The optical densities are read from an automatic spectrophotometric plate reader (Dynatech) directly to a main frame computer (VAX 8600). […] Mean values and standard errors are determined from duplicate wells. […] The number of cells after treatment (P), as % of control, is calculated for every concentration of drug, as follows: [formula] wherein: T is optical density measurement for treated cells after 48 hours; C is optical density measurement for untreated cells after 48 hours; Co is optical density measurement for cells at the time of drug addition. IC50 of growth inhibition is calculated from the sets of P values using the RS-1 data package (BBN Software). […]

[2] = tested on: Adult Bovine Aortic Endothelial (ABAE) cell line; experiment: Antiproliferative activity in ABAE cells, PROTOCOL 2 (48 h, SRB, single well)
Method: as §1, §2, §10, §11, §12, §13, §14
5) after staining with sulforhodamine B each well is washed 3 times, not five times;
6) the growth inhibition (I) as % of control, is calculated using the RS-1 data package (BBN Software), for every concentration of drug, as follows: [formula] wherein: T is optical density measurement for treated cells after 48 hours;
as §7
7) IC50 of growth inhibition is determined from graphically from dose response curves, as is known in the art.
Table 1 presents the results depicting the antiproliferative activity of the compounds of Formula I against an Adult Bovine Aortic Endothelial (ABAE) cell line, as evaluated by PROTOCOL 1 and PROTOCOL 2. The results are presented in terms of IC50 and are as follows.

[3] = tested on: Adult Bovine Aortic Endothelial (ABAE) cell line; experiment: Antiproliferative activity in ABAE cells, PROTOCOL 3 (4 days, cell count); conditions: PROTOCOL 3, FIG. 1
Method: as §1
Antiproliferative Activity in Adult Bovine Aortic Endothelial (ABAE) Cell Line
ABAE cells are grown in DMEM media (Mediatech, Washington, D.C.) supplemented with 10% calf serum (Hyclone). ABAE cells are plated in 24-well dishes at 8,000 cells/well, followed by the addition of increasing concentrations of 7-[substituted amino]-9-[(substituted glycyl)amido]-6-demethyl-6-deoxytetracyclines. After four days, the cells are detached and counted. […] The growth inhibition (I) as % of control is calculated as follows: [formula] wherein: Nc is the number of cells in untreated wells;
Nt is the number of cells in treated wells;
No is the number of plated cells.
IC50 of growth inhibition is determined from the sets of I values plotted by Kaleidograph software (Abelbeck Software).
In addition FIG. 1, presents the dose response curve of the compound of Example 6 for the above ABAE cell line obtained by PROTOCOL 3.

SMILES | A2780S IC50 (A2780S) [µg/mL] | A2780/DDP IC50 (A2780/DDP) [µg/mL] | MIP IC50 (MIP) [µg/mL] | HTB 16 IC50 (HTB 16) [µg/mL] | SW620 IC50 (SW620) [µg/mL] | AVERAGE IC50 FOR TUMOR CELL LINES (Human Tumor Cell lines) [µg/mL] | IC50 PROTOCOL 1 [1] [µg/mL] | IC50 PROTOCOL 2 ([2]; ABAE cells, 48 h, PROTOCOL 2) [µg/mL] | activity in preventing proliferation of ABAE cells compared to Minocycline ([2]; Table 1) | inhibits 50% of cell growth [3]
CN(C)[C@@H]1C(O)=C(C(N)=O)C(=O)[C@@]2(O)C(O)=C3C(=O)c4c(ccc(NC(=O)CN5CCCCC5)c4O)CC3CC12 (stereo partly drawn) [Example 3, [7S-(7alpha,10aalpha)]-N-9-(Aminocarbonyl)-7-(dimethylamino)-5,5a,6,6a,7,10,10a,12-octahydro-1,8,10a,11-tetrahydroxy-10,12-dioxo-1-piperidineacetamidedihydrochloride] | 2.5 | 2.7 | 3.0 | 2.3 | 2.8 | 2.7 | – | – | – | –
CCCNCC(=O)Nc1ccc2c(c1O)C(=O)C1=C(O)[C@]3(O)C(=O)C(C(N)=O)=C(O)[C@@H](N(C)C)C3CC1C2.Cl.Cl (stereo partly shown) [Example 4] | 3.2 | 3.1 | 3.4 | 3.2 | 1.3 | 2.85 | 5.2 | – | – | –
CN(C)[C@@H]1C(O)=C(C(N)=O)C(=O)[C@@]2(O)C(O)=C3C(=O)c4c(ccc(NC(=O)CN5CCCC5)c4O)CC3CC12.Cl.Cl (stereo partly shown) [Example 5] | 2.5 | 2.7 | 3.0 | 2.3 | 2.8 | 2.7 | – | – | – | –
CCCCNCC(=O)Nc1ccc2c(c1O)C(=O)C1=C(O)[C@]3(O)C(=O)C(C(N)=O)=C(O)[C@@H](N(C)C)C3CC1C2.Cl (stereo partly drawn) [Example 6, [4S-(4alpha,12aalpha)]-9-[[(Butylamino)acetyl]amino]-4-(dimethylamino)-1,4,4a,5,5a,6,11,12a-octahydro-3,10,12,12a-tetrahydroxy-1,11-dioxo-2-naphthacenecarboxamide monohydrochloride] | 3.4 | 3.3 | 3.4 | 2.9 | 3.2 | 3.2 | – | 4 | extraordinary activity in preventing the proliferation of ABAE cells as compared to the prior art compound, Minocycline | approximately 3 μg/ml
CN(C)[C@@H]1C(O)=C(C(N)=O)C(=O)[C@@]2(O)C(O)=C3C(=O)c4c(ccc(NC(=O)CNCC5CC5)c4O)CC3CC12.Cl.Cl (stereo partly drawn) [Example 7, [4S-(4alpha,12aalpha)]-9-[[[(Cyclopropylmethyl)amino)acetyl]amino]-4-(dimethylamino)-1,4,4a,5,5a,6,11,12a-octahydro-3,10,12,12a-tetrahydroxy-1,11-dioxo-2-naphthacenecarboxamide dihydrochloride] | 4.9 | 3.9 | 6.3 | 3.3 | 3.9 | 4.5 | – | – | – | –
CN(C)CC(=O)Nc1ccc2c(c1O)C(=O)C1=C(O)[C@]3(O)C(=O)C(C(N)=O)=C(O)[C@@H](N(C)C)C3CC1C2.Cl.Cl (stereo partly drawn) [Example 8, [4S-(4alpha,121aalpha)]-9-[[(Dimethylamino)acetyl]-amino]-4-(dimethylamino)-1,4,4a,5,5a,6,11,12a-octahydro-3,10,12,12a-tetrahydroxy-1,11-dioxo-2-naphthacenecarboxamide dihydrochloride] | 4.8 | 5.8 | 6.0 | 4.1 | 5.0 | 5.1 | – | – | – | –
CC(C)CNCC(=O)Nc1ccc2c(c1O)C(=O)C1=C(O)[C@]3(O)C(=O)C(C(N)=O)=C(O)[C@@H](N(C)C)C3CC1C2.Cl.Cl (stereo partly drawn) [Example 9, [b 4S-(4alpha,12aalpha)]-4-(Dimethylamino)-1,4,4a,5,5a,-6,11,12a-octahydro-3,10,12,12a-tetrahydroxy-9-[[[(2-methylpropyl)amino]acetyl]amino]-1,11-dioxo-2-naphthacenecarboxamide dihydrochloride] | 3.5 | 7.7 | 5.75 | 5.0 | 5.7 | 5.5 | – | – | – | –
